Measured values as given in ChEMBL document CHEMBL1201862, “PubChem BioAssay data set” (2004).
The source made the active and inactive calls.

Experiments:
[1] = biological target: Glyceraldehyde-3-phosphate dehydrogenase (Homo sapiens, UniProt P04406)
[2] = biological target: Alkaline phosphatase, placental type (Homo sapiens, UniProt P05187); test: PLAP enzyme inhibitors, confirmation, biochemical, luminescence (AID 1512); format: functional
[3] = biological target: T1, Voltage-gated N-type calcium channel alpha-1B subunit/Amyloid beta A4 precursor protein-binding family A member 1 (Homo sapiens, UniProt Q00975+Q02410); format: protein assay
[4] = biological target: T1, Voltage-gated N-type calcium channel alpha-1B subunit/Amyloid beta A4 precursor protein-binding family A member 1; format: protein assay; remark: listed apart in the source
Estrogen receptor = biological target: T2, Estrogen receptor (Homo sapiens, UniProt P03372);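 also: potency for inhibiting coactivator peptide recruitment to the receptor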
T2 sequence (P03372 whole entry): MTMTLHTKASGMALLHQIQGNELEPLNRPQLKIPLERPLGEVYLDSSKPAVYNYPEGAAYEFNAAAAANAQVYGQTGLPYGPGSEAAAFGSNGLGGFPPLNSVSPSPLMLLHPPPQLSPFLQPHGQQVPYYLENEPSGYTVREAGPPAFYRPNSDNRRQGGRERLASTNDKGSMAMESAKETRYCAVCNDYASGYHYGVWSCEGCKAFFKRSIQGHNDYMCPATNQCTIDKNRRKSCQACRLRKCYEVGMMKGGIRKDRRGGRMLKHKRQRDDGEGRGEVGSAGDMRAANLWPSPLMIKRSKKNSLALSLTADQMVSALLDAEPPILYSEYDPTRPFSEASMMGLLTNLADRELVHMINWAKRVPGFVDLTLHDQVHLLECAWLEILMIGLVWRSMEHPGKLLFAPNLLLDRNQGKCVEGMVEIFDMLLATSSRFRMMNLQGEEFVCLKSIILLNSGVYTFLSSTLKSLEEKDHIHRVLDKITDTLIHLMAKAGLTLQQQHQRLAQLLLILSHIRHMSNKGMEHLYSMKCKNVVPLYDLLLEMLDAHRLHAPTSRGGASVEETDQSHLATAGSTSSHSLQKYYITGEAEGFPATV

[5] = biological target: T3, Short transient receptor potential channel 4 (Mus musculus, UniProt Q9QUQ5); test: TRPC4 positive allosteric modulators, dose response, cell-based, HEK293 TRPC4/mu-opioid, Fluo-4 calcium, EC20 DAMGO (AID 434941); format: functional
T3 sequence (Q9QUQ5 whole entry): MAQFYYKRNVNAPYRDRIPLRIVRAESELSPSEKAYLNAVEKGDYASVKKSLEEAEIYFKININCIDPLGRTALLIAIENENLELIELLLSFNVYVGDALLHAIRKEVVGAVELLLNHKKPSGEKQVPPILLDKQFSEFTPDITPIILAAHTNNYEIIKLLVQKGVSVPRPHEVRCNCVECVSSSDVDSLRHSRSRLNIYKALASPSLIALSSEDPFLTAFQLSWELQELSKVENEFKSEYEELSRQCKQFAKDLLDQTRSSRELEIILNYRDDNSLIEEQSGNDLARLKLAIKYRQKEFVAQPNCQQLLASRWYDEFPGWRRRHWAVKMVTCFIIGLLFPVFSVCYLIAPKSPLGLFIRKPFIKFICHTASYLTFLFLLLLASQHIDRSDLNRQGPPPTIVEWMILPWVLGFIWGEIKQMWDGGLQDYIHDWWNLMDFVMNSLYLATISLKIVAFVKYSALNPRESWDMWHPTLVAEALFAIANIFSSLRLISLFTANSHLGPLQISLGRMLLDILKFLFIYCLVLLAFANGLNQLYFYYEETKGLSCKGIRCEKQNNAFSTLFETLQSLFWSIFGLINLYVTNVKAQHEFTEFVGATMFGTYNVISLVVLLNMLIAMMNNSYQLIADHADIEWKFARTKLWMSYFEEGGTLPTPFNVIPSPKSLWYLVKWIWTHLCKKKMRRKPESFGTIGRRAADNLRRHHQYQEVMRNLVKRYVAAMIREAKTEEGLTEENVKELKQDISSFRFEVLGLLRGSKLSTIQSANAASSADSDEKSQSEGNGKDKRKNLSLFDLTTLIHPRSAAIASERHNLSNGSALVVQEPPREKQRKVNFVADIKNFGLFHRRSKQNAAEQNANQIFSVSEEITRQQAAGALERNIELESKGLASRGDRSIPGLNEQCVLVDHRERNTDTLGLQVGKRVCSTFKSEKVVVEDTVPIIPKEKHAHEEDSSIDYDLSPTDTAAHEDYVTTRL

[6] = biological target: G-protein coupled receptor 55 (Homo sapiens, UniProt Q9Y2T6); test: GPR55 agonists via beta-arrestin recruitment, primary screen, imaging, U2OS cells, beta-arrestin-GFP redistribution (AID 1961); format: functional
[7] = ADAM10 protease inhibitors, dose response, selectivity assay for ADAM17 exosite inhibitor project, biochemical, FRET peptide substrate, recombinant human ADAM10 (AID 743259);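 also: ADAM10 enzyme cleaving a FRET peptide substrate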
[8] = biological target: Disintegrin and metalloproteinase domain-containing protein 17 (Homo sapiens, UniProt P78536); test: exosite inhibitors of ADAM17, dose response, biochemical (AID 743260)
[9] = biological target: T4, Kappa-type opioid receptor (Homo sapiens, UniProt P41145); format: functional
[10] = biological target: T4, Kappa-type opioid receptor; format: functional; remark: listed apart in the source
Beta-galactosidase [11] = biological target: T5, Beta-galactosidase (Escherichia coli, UniProt Q8VNN2); format: functional
[12] = inhibitors of intracellular T. cruzi replication, confirmation, NIH3T3 host cells, beta-gal luminescence (AID 2044); format: functional, cell-based;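 also: intracellular parasites grown in NIH/3T3 mouse fibroblasts as host cells; luminescent beta-galactosidase reporter signal from transgenic T. cruzi replicating inside host cells; inhibitors lower the luminescence signal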
[13] = microbe, parasite or virus in culture; format: functional; settings: Mycobacterium tuberculosis
[14] = cytotoxicity toward NIH3T3 fibroblasts, dose response, counter-screen, cell-based, ATP luminescence, mouse fibroblasts (AID 2010); format: functional;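 also: cells exposed to compound for about 90 hours before reading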
Beta-galactosidase [15] = biological target: T5, Beta-galactosidase; test: beta-galactosidase enzyme inhibitors and activators, dose response, artefact control for CCR6 antagonist project, biochemical, E. coli enzyme, set 3 (AID 504712); format: functional
[16] = biological target: Delta-type opioid receptor (Homo sapiens, UniProt P41143); test: SAR Analysis of Antagonists of the DOR Receptor using an Image-Based Assay - Set 3. [Related pubchem assays (depositor defined):AID1777, AID1785]; format: functional;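 also: U2OS cells expressing DOR1 and beta-arrestin GFP stimulated with 100 nM SNC80; imaging of GFP-tagged beta-arrestin moving into spots after receptor activation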
Mu-type opioid receptor = Mu-type opioid receptor (Homo sapiens, UniProt P35372); test: SAR Analysis of Antagonists of the MOR Receptor using an Image-Based Assay - Set 3. [Related pubchem assays (depositor defined):AID1777, AID1785, AID1786, AID1966, AID2133, AID2136, AID2284, AID2285, AID2420]; format: functional
[17] = biological target: T4, Kappa-type opioid receptor; test: SAR analysis of small molecule antagonists of the kappa opioid receptor via a luminescent beta-arrestin assay - Set 4. [Related pubchem assays (depositor defined):AID1777, AID1778, AID1785, AID1786, AID1966, AID2133, AID2136, AID2285]; format: functional
[18] = biological target: T4, Kappa-type opioid receptor; test: SAR analysis of Antagonists of the Kappa Opioid Receptor (KOR) using an Image-Based Assay - Set 4. [Related pubchem assays (depositor defined):AID1777, AID1785]; format: functional

T4 sequence (P41145 whole entry): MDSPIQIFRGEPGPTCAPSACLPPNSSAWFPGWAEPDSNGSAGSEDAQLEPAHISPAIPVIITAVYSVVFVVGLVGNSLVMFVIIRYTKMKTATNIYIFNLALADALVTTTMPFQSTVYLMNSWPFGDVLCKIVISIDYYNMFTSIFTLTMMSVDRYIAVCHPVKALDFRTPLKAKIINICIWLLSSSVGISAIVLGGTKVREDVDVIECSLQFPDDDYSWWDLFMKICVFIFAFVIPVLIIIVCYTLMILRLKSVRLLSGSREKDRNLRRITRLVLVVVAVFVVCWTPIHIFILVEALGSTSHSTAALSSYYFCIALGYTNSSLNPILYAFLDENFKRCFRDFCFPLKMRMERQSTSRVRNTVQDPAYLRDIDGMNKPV
T1 sequence (Q00975 whole entry): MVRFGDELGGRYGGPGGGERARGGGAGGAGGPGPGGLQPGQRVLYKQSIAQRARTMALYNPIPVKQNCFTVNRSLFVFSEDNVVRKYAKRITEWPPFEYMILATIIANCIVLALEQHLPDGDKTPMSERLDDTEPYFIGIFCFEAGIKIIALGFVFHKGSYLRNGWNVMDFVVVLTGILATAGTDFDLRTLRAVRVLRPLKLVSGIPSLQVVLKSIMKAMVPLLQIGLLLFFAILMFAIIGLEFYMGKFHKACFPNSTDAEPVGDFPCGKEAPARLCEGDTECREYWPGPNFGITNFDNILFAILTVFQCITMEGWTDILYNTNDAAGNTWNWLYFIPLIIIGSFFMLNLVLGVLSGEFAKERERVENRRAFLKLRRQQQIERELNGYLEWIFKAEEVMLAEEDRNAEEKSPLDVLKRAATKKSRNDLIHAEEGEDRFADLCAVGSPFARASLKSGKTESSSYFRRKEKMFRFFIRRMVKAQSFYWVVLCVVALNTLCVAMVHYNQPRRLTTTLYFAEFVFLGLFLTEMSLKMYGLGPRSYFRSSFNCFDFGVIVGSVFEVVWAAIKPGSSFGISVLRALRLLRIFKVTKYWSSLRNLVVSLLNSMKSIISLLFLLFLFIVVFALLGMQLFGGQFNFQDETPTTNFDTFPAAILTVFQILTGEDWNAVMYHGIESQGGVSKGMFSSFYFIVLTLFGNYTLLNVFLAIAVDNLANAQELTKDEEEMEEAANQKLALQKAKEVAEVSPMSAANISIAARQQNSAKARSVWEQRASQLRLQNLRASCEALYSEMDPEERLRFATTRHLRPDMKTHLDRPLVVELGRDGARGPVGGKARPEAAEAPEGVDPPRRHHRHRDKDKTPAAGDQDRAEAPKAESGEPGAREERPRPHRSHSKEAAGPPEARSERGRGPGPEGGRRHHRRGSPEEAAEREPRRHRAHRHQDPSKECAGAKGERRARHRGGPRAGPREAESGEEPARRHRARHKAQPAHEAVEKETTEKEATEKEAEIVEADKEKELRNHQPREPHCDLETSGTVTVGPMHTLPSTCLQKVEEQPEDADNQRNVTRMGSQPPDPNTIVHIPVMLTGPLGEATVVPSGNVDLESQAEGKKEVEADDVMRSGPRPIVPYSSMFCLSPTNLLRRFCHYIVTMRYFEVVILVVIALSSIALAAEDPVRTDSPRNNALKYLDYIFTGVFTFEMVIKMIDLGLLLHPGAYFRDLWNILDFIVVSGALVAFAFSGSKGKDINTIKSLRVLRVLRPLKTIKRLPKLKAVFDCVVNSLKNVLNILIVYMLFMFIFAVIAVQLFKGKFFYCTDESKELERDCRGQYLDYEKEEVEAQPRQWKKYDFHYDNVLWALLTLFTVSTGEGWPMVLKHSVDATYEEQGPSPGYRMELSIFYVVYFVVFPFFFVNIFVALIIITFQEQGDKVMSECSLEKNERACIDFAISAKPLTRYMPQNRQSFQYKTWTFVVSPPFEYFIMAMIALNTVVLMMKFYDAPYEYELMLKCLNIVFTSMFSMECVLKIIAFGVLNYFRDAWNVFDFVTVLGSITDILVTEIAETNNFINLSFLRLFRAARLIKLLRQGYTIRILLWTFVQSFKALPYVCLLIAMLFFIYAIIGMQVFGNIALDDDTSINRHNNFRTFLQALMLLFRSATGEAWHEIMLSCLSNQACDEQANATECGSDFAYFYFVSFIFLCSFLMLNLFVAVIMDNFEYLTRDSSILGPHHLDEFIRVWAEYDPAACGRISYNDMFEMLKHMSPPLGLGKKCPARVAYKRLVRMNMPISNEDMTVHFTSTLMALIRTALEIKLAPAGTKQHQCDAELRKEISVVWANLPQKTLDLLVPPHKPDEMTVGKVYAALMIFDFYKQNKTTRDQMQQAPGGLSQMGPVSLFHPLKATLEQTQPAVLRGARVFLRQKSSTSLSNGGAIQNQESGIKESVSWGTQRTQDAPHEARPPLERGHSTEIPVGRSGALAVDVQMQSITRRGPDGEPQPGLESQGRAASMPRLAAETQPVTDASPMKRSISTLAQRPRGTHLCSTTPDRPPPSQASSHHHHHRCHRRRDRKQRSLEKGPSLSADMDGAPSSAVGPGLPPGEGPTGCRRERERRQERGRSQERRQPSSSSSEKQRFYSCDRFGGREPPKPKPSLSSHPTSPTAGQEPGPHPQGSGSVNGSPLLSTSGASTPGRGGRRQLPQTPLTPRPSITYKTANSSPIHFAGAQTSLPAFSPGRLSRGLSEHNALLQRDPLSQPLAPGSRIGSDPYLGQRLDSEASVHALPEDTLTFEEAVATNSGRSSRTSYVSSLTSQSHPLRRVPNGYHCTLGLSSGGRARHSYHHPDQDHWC
T1 sequence (Q02410 whole entry): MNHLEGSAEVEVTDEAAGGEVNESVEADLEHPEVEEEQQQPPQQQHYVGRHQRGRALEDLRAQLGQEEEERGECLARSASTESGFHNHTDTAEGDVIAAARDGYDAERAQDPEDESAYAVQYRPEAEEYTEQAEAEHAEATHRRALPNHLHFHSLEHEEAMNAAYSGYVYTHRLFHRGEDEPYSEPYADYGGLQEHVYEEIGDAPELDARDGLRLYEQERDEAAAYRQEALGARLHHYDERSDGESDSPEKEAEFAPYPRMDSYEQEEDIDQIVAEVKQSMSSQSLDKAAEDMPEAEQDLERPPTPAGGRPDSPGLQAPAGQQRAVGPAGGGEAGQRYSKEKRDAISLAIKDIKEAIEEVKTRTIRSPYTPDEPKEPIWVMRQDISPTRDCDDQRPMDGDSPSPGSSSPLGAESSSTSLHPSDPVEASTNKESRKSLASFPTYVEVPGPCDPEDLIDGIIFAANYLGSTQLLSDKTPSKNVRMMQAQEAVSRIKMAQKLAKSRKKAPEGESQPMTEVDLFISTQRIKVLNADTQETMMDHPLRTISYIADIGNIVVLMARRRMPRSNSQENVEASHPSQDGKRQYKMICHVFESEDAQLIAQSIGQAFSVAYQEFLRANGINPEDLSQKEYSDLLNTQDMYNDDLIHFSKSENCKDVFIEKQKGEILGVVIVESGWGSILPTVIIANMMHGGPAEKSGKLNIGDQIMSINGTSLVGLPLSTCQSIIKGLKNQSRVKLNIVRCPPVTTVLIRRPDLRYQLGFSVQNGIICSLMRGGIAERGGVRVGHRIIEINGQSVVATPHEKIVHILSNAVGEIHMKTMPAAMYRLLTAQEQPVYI
T5 sequence (Q8VNN2 whole entry): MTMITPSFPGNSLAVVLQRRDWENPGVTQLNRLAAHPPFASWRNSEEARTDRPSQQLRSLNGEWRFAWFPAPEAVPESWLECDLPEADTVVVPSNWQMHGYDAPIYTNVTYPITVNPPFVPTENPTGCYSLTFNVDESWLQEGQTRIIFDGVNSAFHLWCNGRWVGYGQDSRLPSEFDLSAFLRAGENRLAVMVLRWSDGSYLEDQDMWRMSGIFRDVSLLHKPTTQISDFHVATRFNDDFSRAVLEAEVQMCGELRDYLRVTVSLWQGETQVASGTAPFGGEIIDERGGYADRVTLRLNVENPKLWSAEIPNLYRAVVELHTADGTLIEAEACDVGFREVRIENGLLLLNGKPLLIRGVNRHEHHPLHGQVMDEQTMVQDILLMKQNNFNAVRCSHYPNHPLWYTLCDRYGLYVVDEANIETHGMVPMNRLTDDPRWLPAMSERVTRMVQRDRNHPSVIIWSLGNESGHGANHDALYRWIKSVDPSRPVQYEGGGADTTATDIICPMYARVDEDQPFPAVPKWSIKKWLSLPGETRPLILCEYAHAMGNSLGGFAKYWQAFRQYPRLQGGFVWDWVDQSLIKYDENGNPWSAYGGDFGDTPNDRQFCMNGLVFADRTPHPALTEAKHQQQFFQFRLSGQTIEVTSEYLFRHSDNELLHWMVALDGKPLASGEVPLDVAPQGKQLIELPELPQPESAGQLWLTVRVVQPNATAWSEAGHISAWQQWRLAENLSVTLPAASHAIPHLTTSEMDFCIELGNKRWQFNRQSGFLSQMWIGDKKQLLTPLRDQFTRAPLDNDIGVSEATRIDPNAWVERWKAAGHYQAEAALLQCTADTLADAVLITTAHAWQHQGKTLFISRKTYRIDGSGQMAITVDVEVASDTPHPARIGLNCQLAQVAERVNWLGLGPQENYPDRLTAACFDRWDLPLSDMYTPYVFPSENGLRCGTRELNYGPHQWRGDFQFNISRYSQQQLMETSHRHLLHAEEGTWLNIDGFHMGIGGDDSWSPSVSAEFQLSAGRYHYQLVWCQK
Delta-type opioid receptor, sequence (P41143 whole entry): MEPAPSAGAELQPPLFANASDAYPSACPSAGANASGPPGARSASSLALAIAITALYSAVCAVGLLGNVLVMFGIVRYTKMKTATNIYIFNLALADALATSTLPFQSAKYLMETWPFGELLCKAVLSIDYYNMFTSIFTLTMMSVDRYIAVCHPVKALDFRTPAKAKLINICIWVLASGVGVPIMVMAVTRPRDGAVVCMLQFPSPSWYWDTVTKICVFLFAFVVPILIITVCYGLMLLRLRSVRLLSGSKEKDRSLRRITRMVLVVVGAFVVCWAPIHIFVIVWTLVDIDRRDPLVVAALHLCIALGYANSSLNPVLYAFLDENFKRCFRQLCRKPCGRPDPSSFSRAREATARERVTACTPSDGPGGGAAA

CC(C)NC(=O)c1cc(-c2cc(F)c(Cl)cc2Cl)n[nH]1
IC50 [1]: > 100 µM (not active) | IC50 [2]: > 100 µM (inactive)

C=CCOc1ccc(CC2C(=O)N(C)C(=O)N(C)C2=O)cc1
IC50 [3]: > 50 µM (inactive) | IC50 [4]: 4.93 µM (active) | IC50 (Estrogen receptor): > 50 µM (not active)

O=[N+]([O-])c1cc(C(F)(F)F)ccc1NC1CCN(Cc2ccccc2)C1 (stereo not given)
EC50 [5]: 0.67 µM (active)

Cc1ccc(S(=O)(=O)N(Cc2ccc(Cl)cc2)c2ccccc2C(=O)NCc2ccco2)cc1
EC50 [6]: > 32 µM (inactive) | IC50 [7]: > 7.72 µM (active) | IC50 [8]: > 69.5 µM (inactive)

CCCCC/C(=N/O)c1c(C)[nH]c2ccccc12
IC50 [9]: > 31.5 µM (inactive) | IC50 [10]: > 32 µM | EC50 (Beta-galactosidase [11]): > 31.5 µM (inactive)

C=CCN(CC=C)C(=S)NC(=O)c1ccc(-c2ccccc2)cc1
EC50 [12]: 1.82 µM (active) | CC50 [13]: > 40 µM (active) | EC50 [14]: 9.2 µM (active) | IC50 (Beta-galactosidase [15]): > 66.6 µM (inactive)

CC(C)N(CCNC(=O)c1ccc(CNS(=O)(=O)c2ccc(C(C)(C)C)cc2)cc1)Cc1ccccc1
IC50 [16]: > 32 µM (inactive) | IC50 (Mu-type opioid receptor): > 32 µM (inactive) | IC50 [17]: 2.66 µM (active) | IC50 [18]: 0.79 µM (active)
